Like-named read-outs stand apart in the source and are kept apart here.
Key:
NK, NKT, T and B cells = conditions: healthy rats, cited from earlier work
[1] = test system: ischemia-reperfusion-induced kidney injury; conditions: mice, 10 mg/kg after induced kidney injury; cited from earlier work
IL-6 = conditions: animal models including diabetes, asthma, pancreatitis and hepatitis; cited from earlier work
[2] = n-octanol/water; cited from earlier work
[3] = test system: activated memory T cell line; conditions: 1-5 μmol/l, cited from earlier work
[4] = mice, 120 mg/kg single dose; cited from earlier work
[5] = test system: LPS-induced acute lung injury; conditions: cited from earlier work
human neutrophils = conditions: cited from earlier work
CD83 = conditions: cited from earlier work
microglial cells = conditions: 1-16 μmol/l; cited from earlier work
human mononuclear cells = conditions: nanomolar or micromolar concentrations; cited from earlier work
[6] = test system: chemically induced acute hepatitis; conditions: mice, 25 mg/kg; cited from earlier work
[7] = systemic exposure after i.p. and oral application of CBD in mice (Deiana et al.); assay type: in vivo; conditions: 20 mg/kg, assuming dose-proportional plasma concentrations
Description: A comparative investigation for systemic exposure after i.p. and oral application of CBD in mice and rats has shown that 120 mg/kg as a single dose leads to a maximum plasma concentration of 14,000 ng/ml in mice (S. Deiana et al. (2012). Plasma and brain pharmacokinetic profile of cannabidiol (CBD), cannabidivarine (CBDV), Delta(9)-tetrahydrocannabivarin (THCV) and cannabigerol (CBG) in rats and mice following oral and intraperitoneal administration and CBD action on obsessive-compulsive behaviour. Psychopharmacology (Berl) 219(3): 859-73).

IL-6 secretion = conditions: cellular models, majority of cases; cited from earlier work
[8] = prophylactic, i.p. 0.3-80 mg/kg 60 min before LPS
[9] = therapeutic, 6 h after LPS, 20 mg/kg

## C=C(C)[C@@H]1CCC(C)=C[C@H]1c1c(O)cc(CCCCC)cc1O [CBD, 2-[(1R,6R)-3-methyl-6-(1-methylethenyl)-2-cyclohexen-1-yl]-5-pentyl-1,3-benzenediol]
NK, NKT, T and B cells; 2.5 mg/kg per day
  numbers of NK cells and NKT cells: increased
NK, NKT, T and B cells; 5 mg/kg per day
  numbers of NK cells and NKT cells: not affected
NK, NKT, T and B cells; daily 5 mg/kg
  number of T cells including T helper cells and cytotoxic T cells and of B cells: significantly reduced
[1]
  decreased Treg17 levels and increased Th17 levels: reversed these effects
  effect on kidney injury: renoprotective
IL-6
  circulating IL-6: suppress
[2]
  log P: about 6.1
[3]
  IL-6 production and secretion: decreased
  production of IL-10: increased
[3]; dose-dependently
  Th17 signature cytokine IL-17: decrease
[4]
  maximum plasma concentration: 14,000 ng/ml
[5]; 20 mg/kg, after LPS-induced lung inflammation
  number of leukocytes including macrophages and neutrophils in the bronchoalveolar lavage fluid: decreases
[5]; [8]
  myeloperoxidase activity: significantly decreased
  pro-inflammatory cytokine production including TNF-α and IL-6: significantly decreased
  total leukocytes migration: significantly decreased
  vascular permeability: significantly decreased
[5]; [9]
  leukocyte migration (neutrophil, macrophages and lymphocytes) into the lungs: decreased
  mechanical lung function: improved
  myeloperoxidase activity in the lung tissue: decreased
  production of proinflammatory cytokines/chemokines: reduced
  vascular permeability: reduced
Human neutrophils
  migration of human neutrophils: inhibits
CD83; dendritic cells from healthy individuals
  CD83 dendritic cell activation marker: not
CD83; dendritic cells from individuals with HIV infection
  CD83 dendritic cell activation marker: suppresses
Microglial cells
  apoptosis in microglial cells: induces apoptosis
Human mononuclear cells
  release of pro-inflammatory cytokines: suppressed
[6]
  expression of MDSCs: induces
  pro-inflammatory cytokines such as IL-2, TNF-α and IL-6: reduction
[7]
  target peak exposure: 2,300 ng/ml
IL-6 secretion
  effective concentration for suppressive effect on IL-6 secretion: ~5 µM
